Measured values as given in ChEMBL document CHEMBL5331042, “Azole inhibitors of mushroom and human tyrosinases: Current advances and prospects of drug development for melanogenic dermatological disorders” (Eur J Med Chem, 2022).

What follows are molecules tested against T1, Mushroom tyrosinase (Agaricus bisporus, UniProt O42713+Q00024+C7FF04+C7FF05) (assay: Inhibition of mushroom tyrosinase using L-DOPA as substrate preincubated for 10 mins followed by substrate addition and measured after 20 mins).

SMILES | IC50 [µM]
CCCCn1c(SCC(=O)Nc2ccc(Br)cc2)nnc1-c1ccccc1 | 0.34
COc1ccccc1-n1c(SCC(=O)Nc2ccccc2)nnc1-c1ccccc1 | 0.02
COc1ccccc1-n1c(SCC(=O)Nc2ccc(I)cc2)nnc1-c1ccccc1 | 0.65
COc1ccccc1-n1c(SCC(=O)Nc2ccc(I)cc2)nnc1-c1ccccc1F | 0.06
COc1ccccc1-n1c(SCC(=O)Nc2ccc(F)cc2)nnc1-c1ccccc1F | 0.17
COc1ccccc1-n1c(SCC(=O)Nc2ccccc2)nnc1-c1ccccc1F | 0.54
COc1ccccc1-n1c(SCC(=O)Nc2ccc(Br)cc2)nnc1-c1ccccc1F | 0.15
CCCCn1c(SCC(=O)Nc2ccccc2)nnc1-c1ccccc1 | 0.21
COc1ccccc1-n1c(SCC(=O)Nc2ccc(F)cc2)nnc1-c1ccccc1 | 0.08

Next, values leading:

IC50 [µM] | SMILES
0.37 | CCCCn1c(SCC(=O)Nc2ccc(F)cc2)nnc1-c1ccccc1
0.21 | CCCCn1c(SCC(=O)Nc2ccc(I)cc2)nnc1-c1ccccc1

These molecules were tested against T1, Mushroom tyrosinase (assay: Inhibition of mushroom tyrosinase incubated for 10 mins by spectrophotometric analysis).

IC50 [µM] | SMILES
1.49 | CCCCCn1nc(-c2ccccc2)n(CC(=O)NNC(=S)Nc2ccc(C(F)(F)F)cc2)c1=O
> 20 | CCCCCn1nc(-c2ccccc2)n(CC(=O)NNC(=O)Nc2cccc(Cl)c2)c1=O

The molecules below were run against T1, Mushroom tyrosinase (assay: Inhibition of mushroom tyrosinase using L-DOPA as substrate preincubated for 20 mins followed by substrate addition by absorbance based analysis).

IC50 [µM] | SMILES
0.84 | COc1cccc(NC(=O)Cn2cc(COc3ccc(/C=N/NC(N)=S)cc3)nn2)c1
0.42 | NC(=S)N/N=C/c1ccc(OCc2cn(CC(=O)Nc3cccc(Cl)c3Cl)nn2)cc1
0.56 | Cc1c(NC(=O)Cn2cc(COc3ccc(/C=N/NC(N)=S)cc3)nn2)cccc1[N+](=O)[O-]
2.18 | NC(=S)N/N=C/c1ccc(OCc2cn(CC(=O)Nc3ccccc3)nn2)cc1
0.52 | COc1ccc(NC(=O)Cn2cc(COc3ccc(/C=N/NC(N)=S)cc3)nn2)cc1
0.26 | Cc1c(Cl)cccc1NC(=O)Cn1cc(COc2ccc(/C=N/NC(N)=S)cc2)nn1
0.68 | NC(=S)N/N=C/c1ccc(OCc2cn(CC(=O)Nc3ccc([N+](=O)[O-])cc3)nn2)cc1
0.5 | NC(=S)N/N=C/c1ccc(OCc2cn(CC(=O)Nc3cccc(Cl)c3)nn2)cc1

SMILES | IC50 [µM]
NC(=S)N/N=C/c1ccc(OCc2cn(CC(=O)Nc3ccc(F)cc3)nn2)cc1 | 0.6

The molecules below were run against T2, Tyrosinase (Homo sapiens, UniProt P14679) (assay: Inhibition of human tyrosinase using L-DOPA as substrate incubated for 10 to 20 mins by MBTH dye based assay).
T2 sequence (P14679 whole entry): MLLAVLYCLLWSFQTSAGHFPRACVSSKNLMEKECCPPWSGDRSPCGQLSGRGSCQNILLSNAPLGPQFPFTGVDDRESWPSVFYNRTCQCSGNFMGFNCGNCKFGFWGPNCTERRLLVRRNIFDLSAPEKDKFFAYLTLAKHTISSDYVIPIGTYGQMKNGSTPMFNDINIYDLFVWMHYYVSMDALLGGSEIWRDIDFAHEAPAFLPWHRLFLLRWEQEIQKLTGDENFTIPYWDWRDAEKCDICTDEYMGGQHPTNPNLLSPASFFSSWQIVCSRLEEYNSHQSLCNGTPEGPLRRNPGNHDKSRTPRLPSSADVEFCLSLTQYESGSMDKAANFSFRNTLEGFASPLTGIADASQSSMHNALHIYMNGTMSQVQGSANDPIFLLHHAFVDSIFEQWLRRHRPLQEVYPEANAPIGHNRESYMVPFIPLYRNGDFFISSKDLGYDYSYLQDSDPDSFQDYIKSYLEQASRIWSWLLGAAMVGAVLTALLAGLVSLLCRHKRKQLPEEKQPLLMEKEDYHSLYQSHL

SMILES | IC50 [µM]
CN(c1nc(-c2ccc(O)cc2O)cs1)C1CCCCC1 | 40
Oc1ccc(-c2csc(Nc3ncccn3)n2)cc1 | 19

More lines, now with the values ahead:

IC50 [µM] | SMILES
> 1000 | Cc1sc(NC(=O)C2CCCCC2)nc1-c1ccc(O)cc1O
16 | Oc1ccc(-c2csc(NC3CCCCC3)n2)c(O)c1
3.2 | O=C(NC1CCCCC1)c1csc(-c2ccc(O)cc2O)n1
> 200 | OCCc1ccc(O)cc1O
3.2 | CC(C)(O)c1ccc(C(=O)Nc2nc(-c3ccc(O)cc3O)cs2)cc1
> 700 | CCC(=O)Nc1nc(-c2ccc(O)cc2F)cs1
5.7 | OCc1ccc(Nc2nc(-c3ccc(O)cc3O)cs2)cc1
> 200 | CCCCc1ccc(O)c(C)c1O
> 700 | CC(=O)Nc1nc(-c2ccc(O)cc2O)c[nH]1
56 | O=C(NC1CCCCC1)c1nc(-c2ccc(O)cc2O)cs1
3.5 | CC(=O)/C=C/Nc1nc(-c2ccc(O)cc2O)cs1
93 | CCCCCCc1ccc(O)c(C)c1O
1.1 | CC(C)Nc1nc(-c2ccc(O)cc2O)cs1
> 1000 | CN(C(=O)C1CCCCC1)c1nc(-c2ccc(O)cc2O)cs1
> 1000 | CCCC(=O)Nc1cnc(-c2cc(CCC)c(O)cc2O)s1
> 700 | O=C(Nc1cccc(-c2ccc(O)cc2O)c1)C1CCCCC1
5.6 | CC(=O)Nc1nc(-c2ccc(O)cc2O)cs1
5.7 | CC(C)(C)C(=O)Nc1nc(-c2ccc(O)cc2O)cs1
6.2 | CCCNc1nc(-c2ccc(O)cc2O)cs1

What follows are molecules tested against T1, Mushroom tyrosinase (assay: Inhibition of mushroom tyrosinase using L-tyrosine as substrate preincubated for 20 mins followed by substrate addition by absorbance based analysis).

IC50 [µM] | SMILES
0.22 | COc1cccc(NC(=O)Cn2cc(COc3ccc(/C=N/NC(N)=S)cc3)nn2)c1
0.25 | Cc1c(NC(=O)Cn2cc(COc3ccc(/C=N/NC(N)=S)cc3)nn2)cccc1[N+](=O)[O-]
0.79 | NC(=S)N/N=C/c1ccc(OCc2cn(CC(=O)Nc3ccccc3)nn2)cc1
0.12 | COc1ccc(NC(=O)Cn2cc(COc3ccc(/C=N/NC(N)=S)cc3)nn2)cc1

SMILES | IC50 [µM]
NC(=S)N/N=C/c1ccc(OCc2cn(CC(=O)Nc3ccc(F)cc3)nn2)cc1 | 0.14
